Several values for one entry are separate records, joined by “and”; a condition that tells them apart may be missing. Equal values may be shown once. Inconclusive results and toxic doses are left out. Rule for the calls: active = survival T/C of 150% or more; inactive = T/C below 125% in these data.
System: P388 leukemia ip, CD2F1 mice, survival T/C
Assay: NCI In Vivo Anticancer Drug Screen. Data for tumor model P388 Leukemia (intraperitoneal) in CD2F1 (CDF1) mice
Settings: endpoint: median survival time, higher = longer survival
How it was run: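 Mice carrying the transplanted tumor received test compound or vehicle. Survival was recorded in each group, and the value is the treated-group measurement divided by that of the vehicle-treated control group.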

[1] = dose: 25.0 mg/kg/injection, schedule: Q01DX005 (ip), vehicle: Klucel (hydroxypropylcellulose) (HPC)
[2] = dose: 12.5 mg/kg/injection, schedule: Q01DX009 (ip), vehicle: saline with Tween-80
[3] = dose: 25.0 mg/kg/injection, schedule: Q01DX009 (ip), vehicle: saline with Tween-80
[4] = dose: 50.0 mg/kg/injection, schedule: Q01DX009 (ip), vehicle: saline with Tween-80
[5] = dose: 60.0 mg/kg/injection, schedule: Q01DX005 (ip), vehicle: saline with Tween-80
[6] = dose: 120.0 mg/kg/injection, schedule: Q01DX005 (ip), vehicle: saline with Tween-80
[7] = dose: 240.0 mg/kg/injection, schedule: Q01DX005 (ip), vehicle: saline with Tween-80
[8] = dose: 60.0 mg/kg/injection, schedule: Q01DX005 (ip), vehicle: saline
[9] = dose: 100.0 mg/kg/injection, schedule: Q01DX009 (ip), vehicle: saline with Tween-80
[10] = dose: 50.0 mg/kg/injection, schedule: Q01DX005 (ip), vehicle: Klucel (hydroxypropylcellulose) (HPC)
[11] = dose: 100.0 mg/kg/injection, schedule: Q01DX005 (ip), vehicle: Klucel (hydroxypropylcellulose) (HPC)
[12] = dose: 200.0 mg/kg/injection, schedule: Q01DX005 (ip), vehicle: Klucel (hydroxypropylcellulose) (HPC)
[13] = dose: 50.0 mg/kg/injection, schedule: Q01DX009 (ip), vehicle: Klucel (hydroxypropylcellulose) (HPC)
[14] = dose: 100.0 mg/kg/injection, schedule: Q01DX009 (ip), vehicle: Klucel (hydroxypropylcellulose) (HPC)
[15] = dose: 200.0 mg/kg/injection, schedule: Q01DX009 (ip), vehicle: Klucel (hydroxypropylcellulose) (HPC)
[16] = dose: 50.0 mg/kg/injection, schedule: Q01DX009 (ip), vehicle: saline
[17] = dose: 100.0 mg/kg/injection, schedule: Q01DX009 (ip), vehicle: saline
[18] = dose: 200.0 mg/kg/injection, schedule: Q01DX009 (ip), vehicle: saline
[19] = dose: 50.0 mg/kg/injection, schedule: Q01DX005 (ip), vehicle: saline with Tween-80
[20] = dose: 100.0 mg/kg/injection, schedule: Q01DX005 (ip), vehicle: saline with Tween-80
[21] = dose: 200.0 mg/kg/injection, schedule: Q01DX005 (ip), vehicle: saline with Tween-80
[22] = dose: 200.0 mg/kg/injection, schedule: Q01DX009 (ip), vehicle: saline with Tween-80

Measured: T/C

CCN(CC)CCCCNC(=O)c1noc2cc([N+](=O)[O-])ccc12
inactive: dose: 3.12 mg/kg/injection, schedule: Q01DX005 (ip), vehicle: Klucel (hydroxypropylcellulose) (HPC) 100 % of control | dose: 6.25 mg/kg/injection, schedule: Q01DX005 (ip), vehicle: Klucel (hydroxypropylcellulose) (HPC) 99 % of control and 105 % of control | dose: 12.5 mg/kg/injection, schedule: Q01DX005 (ip), vehicle: Klucel (hydroxypropylcellulose) (HPC) 103 % of control and 97 % of control | [1] 103 % of control and 122 % of control and 96 % of control

COc1ccc2c(c1)nnn2C(=O)/C=C/c1ccccc1
inactive: [2] 94 % of control | [3] 107 % of control | [4] 101 % of control and 104 % of control

CN1CCC/C1=N\S(=O)(=O)/N=C1\CCCN1C
inactive: dose: 50.0 mg/kg/injection, schedule: Q01DX005 (ip), vehicle: saline 92 % of control | dose: 100.0 mg/kg/injection, schedule: Q01DX005 (ip), vehicle: saline 100 % of control | dose: 200.0 mg/kg/injection, schedule: Q01DX005 (ip), vehicle: saline 99 % of control

Nc1nnc(/C=C/c2ccc(Cl)cc2)o1
inactive: [5] 98 % of control | [6] 105 % of control | [7] 106 % of control

Cc1ccn2cc(CC(=O)O)nc2c1
inactive: dose: 100.0 mg/kg/injection, schedule: Q01DX001 (ip), vehicle: Klucel (hydroxypropylcellulose) (HPC) 104 % of control | dose: 200.0 mg/kg/injection, schedule: Q01DX001 (ip), vehicle: Klucel (hydroxypropylcellulose) (HPC) 100 % of control | dose: 400.0 mg/kg/injection, schedule: Q01DX001 (ip), vehicle: Klucel (hydroxypropylcellulose) (HPC) 96 % of control

COC1OCCCO1
inactive: [8] 103 % of control | dose: 120.0 mg/kg/injection, schedule: Q01DX005 (ip), vehicle: saline 104 % of control | dose: 240.0 mg/kg/injection, schedule: Q01DX005 (ip), vehicle: saline 107 % of control

O=c1[nH]ccc2sccc12
inactive: [4] 95 % of control | [9] 100 % of control

O=C(C(=O)C(Br)Br)C(Br)Br
inactive: dose: 1.56 mg/kg/injection, schedule: Q01DX009 (ip), vehicle: DMSO 99 % of control | dose: 3.12 mg/kg/injection, schedule: Q01DX009 (ip), vehicle: DMSO 103 % of control | dose: 6.25 mg/kg/injection, schedule: Q01DX009 (ip), vehicle: DMSO 99 % of control

CCCCCc1nnc2n1N=C(c1ccc(Cl)cc1)CS2
inactive: [5] 100 % of control | [6] 92 % of control | [7] 91 % of control

CC(Cc1nc2ccccc2[nH]1)Cc1nc2ccccc2[nH]1
inactive: [1] 100 % of control | [10] 99 % of control | [11] 92 % of control | [12] 91 % of control

O=C(O)/C(=N/NC(=O)c1ccccc1)c1ccccc1
inactive: dose: 100.0 mg/kg/injection, schedule: Q04DX002 (ip), vehicle: Klucel (hydroxypropylcellulose) (HPC) 98 % of control | dose: 200.0 mg/kg/injection, schedule: Q04DX002 (ip), vehicle: Klucel (hydroxypropylcellulose) (HPC) 98 % of control | dose: 400.0 mg/kg/injection, schedule: Q04DX002 (ip), vehicle: Klucel (hydroxypropylcellulose) (HPC) 92 % of control

CC(C)N(C(C)C)C(C(=O)OCC(O)C(O)C(O)C(O)C(=O)O)N(C(C)C)C(C)C (stereo unspecified)
inactive: [13] 113 % of control | [14] 97 % of control | [15] 111 % of control

CCOC(=O)C(=CNCc1ccccc1)C(=O)OCC
inactive: dose: 15.0 mg/kg/injection, schedule: Q01DX009 (ip), vehicle: saline with Tween-80 106 % of control | dose: 30.0 mg/kg/injection, schedule: Q01DX009 (ip), vehicle: saline with Tween-80 104 % of control | dose: 60.0 mg/kg/injection, schedule: Q01DX009 (ip), vehicle: saline with Tween-80 95 % of control

CCOC(=O)CS(=O)(=O)CCCCCCS(=O)(=O)CC(=O)OCC
inactive: [16] 103 % of control | [17] 91 % of control | [18] 94 % of control

CCOC(=O)C1=C(C)NC(C)=C(C(=O)OCC)C1c1ccccn1
inactive: [13] 99 % of control | [14] 97 % of control | [15] 96 % of control

Cc1ccc(NCC2CCCN3CCCCC23)c2c(=O)c3ccccc3sc12 (stereo unspecified)
inactive: [19] 101 % of control | [16] 97 % of control | [20] 96 % of control | [17] 99 % of control | [21] 106 % of control | [18] 124 % of control

CC(C)(C)NCC(O)c1ccc(O)c(NC=O)c1 (stereo unspecified)
inactive: [4] 110 % of control | [9] 100 % of control | [22] 102 % of control

O=C(O)C(CCc1nc2ccccc2[nH]1)NS(=O)(=O)c1ccccc1 (stereo unspecified)
inactive: [2] 115 % of control | [3] 95 % of control | [4] 103 % of control and 91 % of control | [9] 102 % of control | [22] 102 % of control

C=CCOc1cc2c(cc1C(C)c1ccc(OC)c(OC)c1)OCO2 (stereo unspecified)
inactive: [19] 99 % of control | [20] 100 % of control | [21] 95 % of control

COc1ccc(C(=O)c2ccccc2)c(OC(=O)Nc2c(Cl)cccc2Cl)c1
inactive: [5] 93 % of control | [6] 107 % of control | [7] 88 % of control

CN=C(N)NN=C(c1ccc(Br)cc1)c1ccc(Br)cc1
inactive: dose: 25.0 mg/kg/injection, schedule: Q04DX002 (ip), vehicle: saline with Tween-80 100 % of control and 106 % of control | dose: 50.0 mg/kg/injection, schedule: Q04DX002 (ip), vehicle: saline with Tween-80 103 % of control and 124 % of control

COc1cc(C(c2c(O)c3ccccc3oc2=O)c2c(O)c3ccccc3oc2=O)cc(OC)c1O
inactive: [5] 99 % of control | [6] 111 % of control

CCCCCCCCCC[n+]1cccc(C(N)=O)c1
inactive: dose: 5.0 mg/kg/injection, schedule: Q01DX009 (ip), vehicle: saline with Tween-80 100 % of control | dose: 10.0 mg/kg/injection, schedule: Q01DX009 (ip), vehicle: saline with Tween-80 109 % of control | dose: 20.0 mg/kg/injection, schedule: Q01DX009 (ip), vehicle: saline with Tween-80 113 % of control

CN1C(=O)C23CC4=CC=CC(O)C4N2C(=O)C1(CO)SS3 (stereo unspecified)
inactive: dose: 0.62 mg/kg/injection, schedule: Q04DX002 (ip), vehicle: saline with Tween-80 103 % of control | dose: 1.25 mg/kg/injection, schedule: Q04DX002 (ip), vehicle: saline with Tween-80 104 % of control | dose: 2.5 mg/kg/injection, schedule: Q04DX002 (ip), vehicle: saline with Tween-80 119 % of control

COc1ccccc1C1=NC(C)(C)CO1
inactive: [19] 99 % of control | [20] 94 % of control | [21] 91 % of control

CCN(CC)CCO/N=C1\CC(c2ccc(OC)c(OC)c2)Oc2ccccc21 (stereo unspecified)
inactive: dose: 15.0 mg/kg/injection, schedule: Q01DX005 (ip), vehicle: saline 100 % of control | dose: 30.0 mg/kg/injection, schedule: Q01DX005 (ip), vehicle: saline 114 % of control | [8] 100 % of control and 105 % of control

CCN1CC2(C)CCC(OC)C34C5CC6CCC(O)(C5C(=O)O6)C(C(OC(C)=O)C23)C14 (stereo unspecified)
inactive: dose: 3.0 mg/kg/injection, schedule: Q01DX009 (ip), vehicle: saline 100 % of control | dose: 6.0 mg/kg/injection, schedule: Q01DX009 (ip), vehicle: saline 101 % of control | dose: 12.0 mg/kg/injection, schedule: Q01DX009 (ip), vehicle: saline 98 % of control

O=C(CCN1C(=O)NC(c2ccccc2)(c2ccccc2)C1=O)NCCN1CCOCC1
inactive: [5] 96 % of control | [6] 100 % of control | [7] 102 % of control

Oc1ccc(O)c(-c2c(-c3ccccc3)cc3ccccn23)c1
inactive: [10] 102 % of control | [11] 104 % of control | [12] 104 % of control

C=C1C(=O)OC2C1C(OC(=O)C(C)CC)CC1(O)COC3(O)C1C2C1(C)OC13 (stereo unspecified)
inactive: dose: 6.25 mg/kg/injection, schedule: Q01DX001 (ip), vehicle: Klucel (hydroxypropylcellulose) (HPC) 106 % of control | dose: 12.5 mg/kg/injection, schedule: Q01DX001 (ip), vehicle: Klucel (hydroxypropylcellulose) (HPC) 108 % of control | dose: 25.0 mg/kg/injection, schedule: Q01DX001 (ip), vehicle: Klucel (hydroxypropylcellulose) (HPC) 117 % of control and 90 % of control

Cc1cc(Nc2ccc3c(c2)OCO3)c2cc(C3CCCCC3)ccc2n1
inactive: [5] 95 % of control | [6] 91 % of control
